In one experiment the target is BRD4(49-170) bromodomain (Homo sapiens (Human), UniProt O60885). The experiment is described as follows: BRD4 AlphaScreen Assay. To be noted: binding to biotin-H4(1-21) Ac-K5/8/12/16 peptide. Here is the method:
(§1) Specific binding of the CBP or BRD4 bromodomain to the acetylated peptide derived from the H4 histone substrate (tetra acetylated H4(1-21) Ac-K5/8/12/16) was measured in absence or presence of inhibitors.
(§2) The standard dose response curves were fitted by Genedata Screener software using the variable-slope model: Signal=Signalnegative control+(SignalDMSO control−Signalnegative control)/(1+(IC50/Dose)^Hill slope).
(§3) Only Signal and Dose in the equation were treated as known values.

In experiment [1] the target is GST-CBP(1081-1197) bromodomain (Homo sapiens (Human), UniProt Q92793). Kind of experiment: CBP AlphaScreen Assay. To be noted: binding to biotin-H4(1-21) Ac-K5/8/12/16 peptide. Here is the method:
as §1, §2, §3

The structures appear in SMILES notation. Bounds are passed on as bounds.

This note sets out measurements from US11058688B2, “Imidazopiperazine inhibitors of transcription activating proteins” (Board of Regents, The University of Texas System, priority 2018, dated 2021).

GST-CBP(1081-1197) bromodomain, sequence (Q92793 1081-1197): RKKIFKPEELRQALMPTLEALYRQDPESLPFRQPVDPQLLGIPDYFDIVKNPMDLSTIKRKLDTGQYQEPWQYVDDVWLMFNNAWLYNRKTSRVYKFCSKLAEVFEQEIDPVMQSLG

For the compound `CNC(=O)N1CCn2c(C3CCC(F)(F)CC3)nc(-c3c(F)ccc4cc(-c5cn(C)nc5C)ncc34)c2C1` [Example 81, 3-(4,4-difluorocyclohexyl)-1-(3-(1,3-dimethyl-1H-pyrazol-4-yl)-7-fluoroisoquinolin-8-yl)-N-methyl-5,6-dihydroimidazo[1,5-a]pyrazine-7(8H)-carboxamide], the IC50 at BRD4(49-170) bromodomain is 10.5 µM; in experiment [1] it was 0.011 µM.
For `CNC(=O)N1CCn2c(C3CCC(F)(F)CC3)nc(-c3cccc4cc(N5CCOCC5)ncc34)c2C1` [Example 74, 3-(4,4-difluorocyclohexyl)-N-methyl-1(3-morpholinoisoquinolin-8-yl)-5,6-dihydroimidazo[1,5-a]pyrazine-7(8H)-carboxamide], the IC50 was above 25 µM at BRD4(49-170) bromodomain and 0.004 µM in experiment [1].
The matching figures for `CNC(=O)N1CCn2c(C3CCOCC3)nc(-c3c(F)ccc4cc(-c5ccn(C)n5)ncc34)c2C1` [Example 94, 1-(7-fluoro-3-(1-methyl-1H-pyrazol-3-yl)isoquinolin-8-yl)-N-methyl-3-(tetrahydro-2H-pyran-4-yl)-5,6-dihydroimidazo[1,5-a]pyrazine-7(8H)-carboxamide]: above 25 µM and 0.012 µM.
As for `CNC(=O)c1ccc(-c2cc3cccc(-c4nc(C5CCOCC5)n5c4CN(C(=O)NC)CC5)c3cn2)cn1` [Example 57, N-methyl-1-(3-(6-(methylcarbamoyl)pyridin-3-yl)isoquinolin-8-yl)-3-(tetrahydro-2H-pyran-4-yl)-5,6-dihydroimidazo[1,5-a]pyrazine-7(8H)-carboxamide], the IC50 on BRD4(49-170) bromodomain was found to be 5.97 µM; in experiment [1], 0.001 µM.
The matching figures for `CC(=O)N1CCn2c(C3CC3)nc(-c3ccc4c(c(-c5cnn(C)c5)nn4C)c3F)c2C1` [Example 25, 1-(3-cyclopropyl-1-(4-fluoro-1-methyl-3-(1-methyl-1H-pyrazol-4-yl)-1H-indazol-5-yl)-5,6-dihydroimidazo[1,5-a]pyrazin-7(8H)-yl)ethan-1-one]: 15.9 µM and 0.057 µM.
The matching figures for `CNC(=O)N1CCn2c(C3CN(C(C)=O)C3)nc(-c3ccc4c(c3)c(-c3cnn(C)c3)nn4C)c2C1` [Example 9, 3-(1-Acetylazetidin-3-yl)-N-methyl-1-(1-methyl-3-(1-methyl-1H-pyrazol-4-yl)-1H-indazol-5-yl)-5,6-dihydroimidazo[1,5-a]pyrazine-7(8H)-carboxamide]: above 10 µM and 0.063 µM.
The matching figures for `CNC(=O)N1CCn2c(C3CC(F)(F)C3)nc(-c3cccc4cc(-c5cn(C)nc5C)ncc34)c2C1` [Example 71, 3-(3,3-difluorocyclobutyl)-1-(3-(1,3-dimethyl-1H-pyrazol-4-yl)isoquinolin-8-yl)-N-methyl-5,6-dihydroimidazo[1,5-a]pyrazine-7(8H)-carboxamide]: 13.4 µM and 0.038 µM.
For the compound `CNC(=O)N1CCn2c(C3CC3)nc(-c3c[nH]c4cc(-c5cnn(C)c5)ncc34)c2C1` [Example 38, 3-Cyclopropyl-N-methyl-1-(6-(1-methyl-1H-pyrazol-4-yl)-1H-pyrrolo[3,2-c]pyridin-3-yl)-5,6-dihydroimidazo[1,5-a]pyrazine-7(8H)-carboxamide], the IC50 on BRD4(49-170) bromodomain amounted to 19.8 µM; in experiment [1], 0.032 µM.
The matching figures for `CNC(=O)N1CCn2c(C3CCC(F)(F)C3)nc(-c3cccc4nc(-c5cnn(C)c5)c(C(F)F)cc34)c2C1` (stereo not drawn) [Example 61, 3-(3,3-difluorocyclopentyl)-1-(3-(difluoromethyl)-2-(1-methyl-1H-pyrazol-4-yl)quinolin-5-yl)-N-methyl-5,6-dihydroimidazo[1,5-a]pyrazine-7(8H)-carboxamide]: 13.9 µM and 0.025 µM.
In the case of `CNC(=O)N1CCn2c(C3CCOCC3)nc(-c3cccc4nc(-c5cnn(C)c5)c(C#N)cc34)c2C1` [Example 64, 1-(3-cyano-2-(1-methyl-1H-pyrazol-4-yl)quinolin-5-yl)-N-methyl-3-(tetrahydro-2H-pyran-4-yl)-5,6-dihydroimidazo[1,5-a]pyrazine-7(8H)-carboxamide], the IC50 worked out at 22.8 µM at BRD4(49-170) bromodomain and 0.004 µM in experiment [1].
On the same counts, the results for `CNC(=O)N1CCn2c(C3CC3)nc(-c3cccc4cc(-c5cnn(C)c5)ncc34)c2C1` [Example 124, 3-cyclopropyl-N-methyl-1-(3-(1-methyl-1H-pyrazol-4-yl)isoquinolin-8-yl)-5,6-dihydroimidazo[1,5-a]pyrazine-7(8H)-carboxamide] are 6.48 µM and 0.002 µM.
The matching figures for `CNC(=O)N1CCn2c(C3CCOCC3)nc(-c3cccc4cc(N5CCOCC5)ncc34)c2C1` [Example 63, N-methyl-1-(3-morpholinoisoquinolin-8-yl)-3-(tetrahydro-2H-pyran-4-yl)-5,6-dihydroimidazo[1,5-a]pyrazine-7(8H)-carboxamide]: 23.6 µM and 0.014 µM.
The matching figures for `CNC(=O)N1CCn2c(C3CC3(F)F)nc(-c3cccc4nc(-c5cnn(C)c5)c(C(F)F)cc34)c2C1` (stereo not drawn) [Example 60, 3-(2,2-difluorocyclopropyl)-1-(3-(difluoromethyl)-2-(1-methyl-1H-pyrazol-4-yl)quinolin-5-yl)-N-methyl-5,6-dihydroimidazo[1,5-a]pyrazine-7(8H)-carboxamide]: 15.8 µM and 0.018 µM.
In the case of `CNC(=O)N1CCn2c(C3CN(C)C3)nc(-c3ccc4c(c3)c(-c3cnn(C)c3)nn4C)c2C1` [Example 8, N-Methyl-1-(1-methyl-3-(1-methyl-1H-pyrazol-4-yl)-1H-indazol-5-yl)-3-(1-methylazetidin-3-yl)-5,6-dihydroimidazo[1,5-a]pyrazine-7(8H)-carboxamide], the IC50 was above 10 µM on BRD4(49-170) bromodomain and 0.115 µM in experiment [1].
The matching figures for `CC(=O)N1CCn2c(C(C)C)nc(-c3ccc4c(c3)c(-c3cnn(C)c3)nn4C)c2C1` [Example 49, 1-(3-isopropyl-1-(1-methyl-3-(1-methyl-1H-pyrazol-4-yl)-1H-indazol-5-yl)-5,6-dihydroimidazo[1,5-a]pyrazin-7(8H)-yl)ethan-1-one]: above 10 µM and 0.067 µM.
As for `CNC(=O)N1CCn2c(C3CC(F)(F)C3)nc(-c3cccc4nc(-c5cnn(C)c5)c(C(F)F)cc34)c2C1` [Example 58, 3-(3,3-difluorocyclobutyl)-1-(3-(difluoromethyl)-2-(1-methyl-1H-pyrazol-4-yl)quinolin-5-yl)-N-methyl-5,6-dihydroimidazo[1,5-a]pyrazine-7(8H)-carboxamide], the IC50 at BRD4(49-170) bromodomain was above 10 µM; in experiment [1], 0.049 µM.
On the same counts, the results for `CNC(=O)N1CCn2c(C3CC3)nc(-c3c(F)ccc4cc(-c5cn(C)nc5C)ncc34)c2C1` [Example 72, 3-cyclopropyl-1-(3-(1,3-dimethyl-1H-pyrazol-4-yl)-7-fluoroisoquinolin-8-yl)-N-methyl-5,6-dihydroimidazo[1,5-a]pyrazine-7(8H)-carboxamide] are 17.1 µM and 0.054 µM.
For the compound `CC(=O)N1CCn2c(C)nc(-c3ccc4c(c3)c(-c3cnn(C)c3)nn4C)c2C1` [Example 47, 1-(3-methyl-1-(1-methyl-3-(1-methyl-1H-pyrazol-4-yl)-1H-indazol-5-yl)-5,6-dihydroimidazo[1,5-a]pyrazin-7(8H)-yl)ethan-1-one], the IC50 is above 10 µM on BRD4(49-170) bromodomain and 0.153 µM in experiment [1].
On the same counts, the results for `CC(=O)N1CCn2cnc(-c3ccc4c(c3)c(-c3cnn(C)c3)nn4C)c2C1` [Example 10, 1-(1-(1-Methyl-3-(1-methyl-1H-pyrazol-4-yl)-1H-indazol-5-yl)-5,6-dihydroimidazo[1,5-a]pyrazin-7(8H)-yl)ethanone] are above 10 µM and 0.197 µM.
On the same counts, the results for `CNC(=O)N1CCn2c(C3CC(F)(F)C3)nc(-c3cccc4cc(-c5ccn(C)n5)ncc34)c2C1` [Example 79, 3-(3,3-difluorocyclobutyl)-N-methyl-1-(3-(1-methyl-1H-pyrazol-3-yl)isoquinolin-8-yl)-5,6-dihydroimidazo[1,5-a]pyrazine-7(8H)-carboxamide] are 14.8 µM and 0.006 µM.
The matching figures for `CNC(=O)N1CCn2c(C3CCN(C)CC3)nc(-c3ccc4c(c3)c(-c3cnn(C)c3)nn4C)c2C1` [Example 56, N-methyl-1-(1-methyl-3-(1-methyl-1H-pyrazol-4-yl)-1H-indazol-5-yl)-3-(1-methylpiperidin-4-yl)-5,6-dihydroimidazo[1,5-a]pyrazine-7(8H)-carboxamide]: above 10 µM and 0.022 µM.
For the compound `CNC(=O)N1CCn2c(C3CC3)nc(-c3cccc4cc(-c5cn(C)nc5C)ncc34)c2C1` [Example 69, 3-cyclopropyl-1-(3-(1,3-dimethyl-1H-pyrazol-4-yl)isoquinolin-8-yl)-N-methyl-5,6-dihydroimidazo[1,5-a]pyrazine-7(8H)-carboxamide], the IC50 on BRD4(49-170) bromodomain amounted to 10.1 µM; in experiment [1], 0.017 µM.
The matching figures for `CC(=O)N1CCn2c(C3CC3)nc(N3CCCc4cc(-c5cncc(S(C)(=O)=O)c5)ccc43)c2C1` [Example 107, 1-(3-cyclopropyl-1-(6-(5-(methylsulfonyl)pyridin-3-yl)-3,4-dihydroquinolin-1(2H)-yl)-5,6-dihydroimidazo[1,5-a]pyrazin-7(8H)-yl)ethan-1-one]: above 25 µM and 0.51 µM.
On the same counts, the results for `CC(=O)N1CCn2c(C3CC3)nc(N3CCCc4cc(-c5cnn(CC6CC6)c5)ccc43)c2C1` [Example 115, 1-(3-cyclopropyl-1-(6-(1-(cyclopropylmethyl)-1H-pyrazol-4-yl)-3,4-dihydroquinolin-1(2H)-yl)-5,6-dihydroimidazo[1,5-a]pyrazin-7(8H)-yl)ethan-1-one] are above 25 µM and 0.679 µM.
